Experiments:
[1] = system: pRb (Ser780) in MDA-MB-453 cells; test: pRb (Ser780) high content imaging cellular assay, CDK4-dependent MDA-MB-453; format: cell-based; details: Homo sapiens, CDK4-dependent cell line, n = 4, read-out: pRb (Ser780) Cellular assays IC50 MDA-MB-453
Protocol: (§1) Intracellular phosphorylation of Rb in its residue 780 (Ser780) was measured using fluorescently labeled phospho-specific antibodies and high content imaging. […]
(§2) The mean fluorescence intensity, (Thermo Fisher P3566) dilution in PBS was added for 1 h or median of fluorescence (MFI), was calculated, and at RT. Fluorescence plates were scanned with ACUMEN compared for individual well and condition. EXPLORER™ monitoring Alexa Fluor 488 and PI signals Cell cycle was analyzed using a Ki67/PI protocol. using 488nm wavelength. […]
(§3) (Immunostep, PI/RNASE) for 15 min at RT in the dark. and representation of final readouts. JMP (Statistical […]
(§4) pRb Ser780 – high content imaging cell-based was incubated with an antibody against Annexin V. After assay [previously described in Torres-Guzmán et al. 10 minutes of incubation in dark, cells were washed twice (2017)] using Annexin buffer V. Finally, cells were analyzed using MDA-MB-453 (CDK4-dependent) and NCI-H1568 the flow cytometer where PI (1:100) was automatically (CDK6-dependent) cells were seeded at a density of 5 000 added. The percentage of cells at the different phases of and 3 000 cells per well, respectively, in 96-well plates. apoptosis was represented (PI–/Annexin V- for Alive cells, Between 14–24 h after seeding, cells were treated with PI–/Annexin V+ for Early apoptotic cells, PI+/Annexin […]
(§5) V+ for Late apoptotic cells and PI+/Annexin V– for Dead
(§6) Compounds were provided as 10mM stock in 100% cells).
(§7) DMSO and were further diluted to achieve the desired Senescence final concentration (DMSO 0.2%). For fluorescent detection of β-galactosidase, cells After treatment with compounds, the cells were washed with PBS 1X and fixed using 2% PFA incubated at 37°C and 5% CO2 for 4h before being (Acros organics, 119690010) for 10 minutes. Then, cells washed once with PBS and adding 100 μl of fresh media. were washed using PBS+1%BSA and incubated with the […]

[2] = system: pRb (Ser780) in NCI-H1568 cells; test: pRb (Ser780) high content imaging cellular assay, CDK6-dependent NCI-H1568; format: cell-based; details: Homo sapiens, CDK6-dependent cell line, n = 4, read-out: pRb (Ser780) Cellular assays IC50 NCI-H1568
Protocol: as §1
as §2, with “using the flow cytometer (gated on single and alive RNase A (Sigma R6513) and Propidium Iodide (PI) cells subpopulations). The mean” for “The mean”
as §3, §4, §5, §6, §7

[3] = system: pRb (Ser780) in MDA-MB-453 cells; test: pRb (Ser780) washout experiment in MDA-MB-453; format: cell-based; details: Homo sapiens
Protocol: as §2, with “using the flow cytometer (gated on single and alive RNase A (Sigma R6513) and Propidium Iodide (PI) cells subpopulations). The mean” for “The mean”
Next, cells were washed, Raw data were analyzed with FlowJo 10.6 software. and the cell pellet was incubated with PI/RNase A Graph Pad v8.4.3 software was used for data analysis (Immunostep, PI/RNASE) for 15 min at RT in the dark. and representation of final readouts. JMP (Statistical Cells were analyzed using the flow cytometer (gated for Discovery from SAS) was used for the statistical treatment debris exclusion and single cells). A minimum of 5 000 (ANOVA, pair-wise analysis) of the data. […]
All data were analyzed using FlowJo 10.6 and Graph Pad […]
as §4, §5, §6, §7

pRb in MDA-MB-231 cells = test: Inhibition of pRb in breast cancer cell line MDA-MB-231; format: cell-based; details: Homo sapiens, 16 hours
pRb in MCF-7 cells = test: Inhibition of pRb in breast cancer cell line MCF-7; format: cell-based; details: Homo sapiens, MCF7; 16 hours
pRb in BT474 cells = test: Inhibition of pRb in breast cancer cell line BT474; format: cell-based; details: Homo sapiens, BT-474; 16 hours
[4] = system: pRb in MDA-MB-175 VII cells; test: Inhibition of pRb in breast cancer cell line MDA-MB-175 VII; format: cell-based; details: Homo sapiens, 16 hours
pRb in EFM-19 cells = test: Inhibition of pRb in breast cancer cell line EFM-19; format: cell-based; details: Homo sapiens, 16 hours
pRb in MDA-MB-361 cells = test: Inhibition of pRb in breast cancer cell line MDA-MB-361; format: cell-based; details: Homo sapiens, 16 hours
pRb in MDA-MB-134 cells = test: Inhibition of pRb in breast cancer cell line MDA-MB-134; format: cell-based; details: Homo sapiens; 16 hours
pRb in HCC70 cells = test: Inhibition of pRb in breast cancer cell line HCC70; format: cell-based; details: Homo sapiens, 16 hours
[5] = Viability of isolated mature neutrophils from human whole blood (Annexin V/PI); format: cell-based
Protocol: Human whole blood was obtained from six healthy donors who previously provided written informed consent. Mature neutrophils were isolated from human whole blood, using a negative-selection technique (MACSxpress isolation kit, Miltenyi 130-104-434). CD16 cell surface expression (Miltenyi, 130-113-396) was used as quality control; only samples with yield > 95% passed QC. CD34+ human bone marrow primary progenitor cells were obtained from Tebu bio (BM34C-4).
Mature neutrophils were plated in a 96-well plate (60K cells per well) in 100 μl RPMI 1640 (Invitrogen), 10% hiFBS (Fisher) and 1% Pen/Strep (Invitrogen).
Neutrophils were plated in a 96-well plate (60K cells/well) in the above-mentioned cell medium. A 10 mM stock of each CDK4 & 6i was used to make ten-point 1:3 serial dilutions in 100% DMSO; multiple dilution steps were used to reach the concentration in the assay: 10 μM, 0.1% DMSO. Non-treated cells (0.1% DMSO) and roscovitine (20 μM) were used as controls. Neutrophils were incubated for 6 h. Following treatment, cells were washed with FACS flow (BD, 342 003), and supernatant was removed. The cell pellet was stained with Annexin V-FITC antibody for 10 min in the dark. Cells were washed with Annexin buffer, centrifuged at 300 G for 5 min, supernatant was discarded, and cell pellet was resuspended in 100 μl of Annexin buffer and analyzed by flow cytometry. PI 1:200 was added automatically by the cytometer. All incubations occurred at 37°C, 5% CO2.
The percentage of alive, early apoptosis, late apoptosis, and dead cells was monitored using the Annexin V/PI assay. Cells were incubated with an anti-human Annexin V-FITC antibody, binding specifically to phosphotidylserine (PS), for 10 min in the dark. PS redistributes to the outer part of the cell membrane in an early stage of apoptosis; in late apoptotic cells, as the cell membrane loses its integrity, both PS and PI can be detected. […]

T47D cells = test: T47D continuous dosing, apoptosis by Annexin V/PI flow cytometry; format: cell-based, human; details: after 8 days of continuous dosing
Protocol: T47D cells were seeded in six-well plates (50 000 cells/well) in 2 ml of cell medium (10% hiFBS [Fisher] and 1% Pen/Strep [Invitrogen]). […] Non-treated cells (0.04% DMSO) and staurosporine 1 μM were used as controls for minimum and maximum inhibition controls respectively. […] Cells were then detached using trypsin and transferred to the deep well plate and spun at 1 300 rpm for 5 min. Cell pellet was washed using PBS1X and plated for apoptosis measurement (Annexin V/PI), using the procedure described above (mature neutrophils). All cells were gated on FSC/SSC to exclude debris and doublets.

[6] = system: Rb1-deficient breast cancer cell lines; test: Breast cancer cell panel proliferation (nuclei count); format: cell-based, human; details: two doublings
Protocol: A panel of 37 BC cell lines (see Supplementary Table 3 for details) was obtained from the American Type Culture Collection (ATCC, Manassas, Virginia, USA 30-4500 K) or the German Collection of Microorganisms and Cell Cultures GmbH (DSMZ). Cells were cultured according to ATCC or DSMZ recommendations for fewer than ten passages. Cells were seeded in 96 or 384-well plates and incubated overnight prior to treatment.
Cells were plated at 1,000 or 2,000 cells per well in 384-well plates in a total volume of 25 μl of either growth media alone; with 2 μM staurosporine; or with decreasing concentrations of test compounds with a range 20 μM–1 nM. Test compounds were prepared in 100% DMSO using a dilution factor of 1:3 before addition to the cells pre-diluted in growth media. Cells were incubated at 37°C until the untreated cells had doubled twice. Cells were fixed with 70% ethanol, treated with RNAse and nuclei stained with Propidium Iodide (PI). Cell nuclei per well were counted using an ACUMEN EXPLORER™ (STP LABTECH LTD) to determine the number of cells remaining after treatment. […]
were thawed and resuspended in IMDM, 10% hiFBS […]
by curve, slope = steepness of curve at IC50. IC50: 558385), anti-CDK4 antibody (Abcam ab75511) and anti- […]
(ligand binding, enzyme response) by 50%. Fujifilm LAS4000. Actin (Sigma A5441) was used as a %Inh = [(median Max- x/ median Max – median loading control. […]
model were plotted as Geometric means in a waterfall plot using knime workflows. […]
containing 200 μg/ml Ribonuclease A (Sigma R6513).
To monitor senescence, cells […]
treated cells. The same procedure was also followed to instructions. […]
process. was removed. Cell pellet was incubated with Annexin […]
treated controls. […] Cells were analyzed […]
antibodies against CD13-FITC and CD11b-PE. After 10 exclusion and singlets selection). A minimum of 5000 […]
and supernatant was discarded. Cells were resuspended in (Alive). AnnexinV+/PI– (Early apoptosis), Annexin+/PI+ buffer for acquisition in flow cytometer. […]
cytometer (488-nm laser and 585/40nm filter). […] Finally, cells were washed and analyzed

CDK4/CyclinD1 = CDK4/CyclinD1 (Homo sapiens, UniProt P11802); details: cell-free assay, KiATP
Chain of CDK4/CyclinD1 (P11802 whole entry): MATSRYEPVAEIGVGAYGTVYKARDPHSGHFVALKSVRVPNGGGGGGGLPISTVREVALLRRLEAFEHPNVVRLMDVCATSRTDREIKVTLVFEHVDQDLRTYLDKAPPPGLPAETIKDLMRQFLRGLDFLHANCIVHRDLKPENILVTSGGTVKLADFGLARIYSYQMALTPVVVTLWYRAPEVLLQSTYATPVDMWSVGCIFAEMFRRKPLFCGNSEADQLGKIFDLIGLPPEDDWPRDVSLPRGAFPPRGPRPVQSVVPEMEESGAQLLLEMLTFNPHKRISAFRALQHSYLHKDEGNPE
Chain of CDK4/CyclinD1 (P24385 whole entry partner): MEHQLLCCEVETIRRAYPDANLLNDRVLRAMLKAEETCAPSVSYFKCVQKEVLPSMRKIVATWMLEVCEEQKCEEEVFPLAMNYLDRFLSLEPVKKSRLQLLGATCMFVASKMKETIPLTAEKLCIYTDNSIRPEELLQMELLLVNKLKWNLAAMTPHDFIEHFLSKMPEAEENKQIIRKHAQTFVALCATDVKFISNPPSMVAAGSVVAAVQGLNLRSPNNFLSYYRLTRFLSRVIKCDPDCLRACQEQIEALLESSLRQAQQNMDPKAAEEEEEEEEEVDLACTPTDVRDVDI
Protocol: Compounds were mixed with substrate mix (C-terminal retinoblastoma fragment [CTRF] peptide and ATP/33-P ATP) at a final concentration range of 2 μM–0.1 nM. The mix was incubated for 90 min at RT and the reaction was then stopped by adding 80 μl of 10% ortho-Phosphoric acid. The mix was next transferred to Multiscreen filter plates (Millipore) to retain phosphorylated peptide. The plates were read in a Microbeta Trilux instrument. Reaction mix with excess of EDTA was used as assay “bottom signal”; complete reaction mix without the inhibitor/compound was used as assay “top signal”.
For IC50 determination, results were fitted to a four-parameter dose-response curve using the following equation:
For the ATP saturation studies Ki and K’i parameters were estimated using the formula:
V=Vmax[S]/[Km(1+[I]/Ki)+[S](1+[I]/Ki')]

[7] = read-out: relative IC50 for pRb (Ser780) reduction, 12 h after compound removal, MDA-MB-453, 4 h treatment then 12 h washout
[8] = MDA-MB-453, 4 h treatment, before compound removal, read-out: relative IC50 for pRb (Ser780) reduction, treatment phase

Row | SMILES | IC50 [1] [nM] | IC50 [2] [nM] | IC50 [3, 7] [nM] | IC50 [3, 8] [nM] | IC50 (pRb in MDA-MB-231 cells) [nM] | IC50 (pRb in MCF-7 cells) [nM] | IC50 (pRb in BT474 cells) [nM] | IC50 [4] [nM] | IC50 (pRb in EFM-19 cells) [nM] | IC50 (pRb in MDA-MB-361 cells) [nM] | IC50 (pRb in MDA-MB-134 cells) [nM] | IC50 (pRb in HCC70 cells) [nM] | viability at 6 h [5] [%] | percentage in total apoptotic and dead cells (T47D cells; 50 nM) [%] | percentage in total apoptotic and dead cells (T47D cells; 100 nM) [%] | activity in Rb1-deficient cell lines (proliferation) [6] | specificity for CDK4/Cyclin D1 over CDK6/Cyclin D3 complexes (CDK4/CyclinD1)
1 | CCN1CCN(Cc2ccc(Nc3ncc(F)c(-c4cc(F)c5nc(C)n(C(C)C)c5c4)n3)nc2)CC1 [Abemaciclib, abemaciclib] | 7.4 | 94 | < 100 | 6.4 | 17.1 ± 4.2 | 19.4 ± 7.4 | 4.58 ± 2.9 | 17.8 ± 2.8 | 4.4 ± 1.2 | 8.24 ± 1.6 | 8.5 ± 0.9 | > 6000 | 82.5 | 28.1 | 40.7 | inactive | approximately 14 fold
2 | CN(C)C(=O)c1cc2cnc(Nc3ccc(N4CCNCC4)cn3)nc2n1C1CCCC1 [Ribociclib, ribociclib] | 53 | 554 | – | – | 71.5 ± 26.5 | 116 ± 78.5 | 34 ± 26.7 | 115 ± 80.9 | 31 ± 3.6 | 54.2 ± 13.8 | 60 ± 19.7 | > 6000 | 81.4 | – | – | inactive | –
3 | CC(=O)c1c(C)c2cnc(Nc3ccc(N4CCNCC4)cn3)nc2n(C2CCCC2)c1=O [Palbociclib, palbociclib] | 23 | 63 | 447 | 14.1 | 16.1 ± 7.6 | 25.6 ± 14 | 11.5 ± 5.5 | 18.9 ± 4.7 | 11 ± 0.6 | 14.6 ± 2.1 | 20.5 ± 8.2 | > 6000 | 82.9 | 13.2 | 18.7 | inactive | –
